Key:
[1] = Microsomal clearance (hLM); details: human liver microsomes
Mtb Lpd = Mtb Lpd (Mycobacterium tuberculosis (strain ATCC 25618 / H37Rv), UniProt P9WHH9); format: biochemical; details: read-out: LPD IC50

SMILES | Human Liver Microsome Stability [1] [µL/min/mg] | IC50 (Mtb Lpd) [nM]
COc1ccc(NC(=O)CN(C)S(=O)(=O)c2cc(C)cc3cn[nH]c23)cc1Cl [Example 1, N-(3-chloro-4-methoxyphenyl)-2-((N,5-dimethyl-1H-indazole)-7-sulfonamido)acetamide] | >768 | 
COc1ccc(NC(=O)[C@@H]2CCCN2S(=O)(=O)c2cc(C)cc3cn[nH]c23)cc1Cl [Example 4, (S)—N-(3-chloro-4-methoxyphenyl)-1-((5-methyl-1H-indazol-7-yl)sulfonyl)pyrrolidine-2-carboxamide] | 324 | 390
Cc1cc(S(=O)(=O)N2CCC[C@H]2C(=O)Nc2ccc(N3CCOCC3)c(Cl)c2)c2[nH]ncc2c1 [Example 5] | 133 | 42
